According to patent US6403587B1, “Heteroaryl-hexanoic acid amide derivatives, their preparation and their use as selective inhibitors of MIP-1-α binding to its CCR 1 receptor” (Pfizer Inc., priority 1997, dated 2002):

Structure (SMILES)	melting point
CC(C)(O)CC[C@H](C[C@H](O)[C@H](Cc1cc(F)cc(F)c1)NC(=O)c1cnc2ccccc2n1)C(N)=O [Example 315, Quinoxaline-2-carboxylic acid [4(R)-carbamoyl-1(S)-(3,5-difluoro-benzyl)-2(S),7-dihydroxy-7-methyl-octyl]-amide]	162 to 163 °C
CC(C)(O)CC[C@H](C[C@H](O)[C@H](Cc1cc(F)cc(F)c1)NC(=O)c1cnc2ccccc2n1)C(=O)NO [Example 320, Quinoxaline-2-carboxylic acid [1(S)-(3,5-difluoro-benzyl)-2(S),7-dihydroxy-4(R)-hydroxycarbamoyl-7-methyl-octyl]-amide]	98 to 100 °C
CC(C)(O)CC[C@H](C[C@H](O)[C@H](Cc1ccccc1)NC(=O)c1cnccc1C(F)(F)F)C(N)=O [Example 323, N-(1(S)-Benzyl-4(R)-carbamoyl-2(S),7-dihydroxy-7-methyl-octyl)-4-trifluoromethyl-nicotinamide]	131 to 135 °C
CC(C)(O)CC[C@H](C[C@H](O)[C@H](Cc1ccccc1F)NC(=O)c1cnc2ccccc2n1)C(=O)NO [Example 326, Quinoxaline-2-carboxylic acid [1(S)-(2-fluoro-benzyl)-2(S),7-dihydroxy4(R)-hydroxycarbamoyl-7-methyl-octyl]-amide]	130 to 131 °C
CC(C)(O)CC[C@H](C[C@H](O)[C@H](Cc1cccs1)NC(=O)c1cnc2ccccc2n1)C(N)=O [Example 327, Quinoxaline-2-carboxylic acid (4(R)-carbamoyl-2(S),7-dihydroxy-7-methyl-1(S)-thiophen-2-ylmethyl-octyl)-amide]	158 to 159 °C
CC(C)(O)CC[C@H](C[C@H](O)[C@H](Cc1ccccc1F)NC(=O)c1cnc2ccccc2n1)C(N)=O [Example 328, Quinoxaline-2-carboxylic acid [4(R)-carbamoyl-1(S)-(2-fluoro-benzyl)-2(S),7-dihydroxy-7-methyl-octyl]-amide]	147 to 148 °C
CC(C)(O)CC[C@H](C[C@H](O)[C@H](Cc1ccc(F)c(F)c1)NC(=O)c1cnc2ccccc2n1)C(=O)NO [Example 329, Quinoxaline-2-carboxylic acid [1(S)-(3,4-difluoro-benzyl)-2(S),7-dihydroxy-4(R)-hydroxycarbamoyl-7-methyl-octyl]-amide]	150 to 153 °C

The next lines start with the values.

melting point	Structure (SMILES)
110 to 120 °C	CC(C)(O)CC[C@H](C[C@H](O)[C@H](Cc1ccc(F)c(F)c1)NC(=O)c1cnc2ccccc2n1)C(N)=O [Example 330, Quinoxaline-2-carboxylic acid [4(R)-carbamoyl-1(S)-(3,4-difluoro-benzyl)-2(S),7-dihydroxy-7-methyl-octyl]-amide]
155 to 158 °C	CC(C)(O)CC[C@H](C[C@H](O)[C@H](Cc1cccc2ccccc12)NC(=O)c1cnc2ccccc2n1)C(N)=O [Example 331, Quinoxaline-2-carboxylic acid (4(R)-carbamoyl-2(S),7-dihydroxy-7-methyl-1(S)-naphthalen-1-ylmethyl-octyl)-amide]
183 to 185 °C	CC(C)(O)CC[C@H](C[C@H](O)[C@H](Cc1cccc(F)c1)NC(=O)c1cnc2c(F)c(F)c(F)cc2c1)C(N)=O [Example 332, 6,7,8-Trifluoro-quinoline-3-carboxylic acid [4(R)-carbamoyl-1(S)-(3-fluoro-benzyl)-2(S),7-dihydroxy-7-methyl-octyl]-amide]
104 to 106 °C	CC(C)(O)CC[C@H](C[C@H](O)[C@H](Cc1ccc2ccccc2c1)NC(=O)c1cnc2ccccc2n1)C(N)=O [Example 333, Quinoxaline-2-carboxylic acid (4(R)-carbamoyl-2(S),7-dihydroxy-7-methyl-1(S)-naphthalen-2-ylmethyl-octyl)-amide]
163 to 164 °C	CC(C)(O)CC[C@H](C[C@H](O)[C@H](Cc1csc2ccccc12)NC(=O)c1cnc2ccccc2n1)C(N)=O [Example 335, Quinoxaline-2-carboxylic acid (1(S)-benzo[b]thiophen-3-ylmethyl-4(R)-carbamoyl-2(S),7-dihydroxy-7-methyl-octyl)-amide]
190.5 to 191.5 °C	NC(=O)C(Cc1ccc(O)cc1)CC(O)C(Cc1ccccc1)NC(=O)c1cnc2ccccc2n1 (stereo not shown) [Example 336, Quinoxaline-2-carboxylic acid [1-benzyl-4-carbamoyl-2-hydroxy-5-(4-hydroxy-phenyl)-pentyl]-amide]
